Patent US8586505B2 (SDS Biotech K. K., priority 2009, dated 2013)

Columns and labels:
[1] = system: Phytophthora infestans; assay: whole plant or invertebrate; type: in vivo; conditions: in Solanum lycopersicum, 96 h, read-out: Determination of control effect (preventive value)
[2] = system: Pseudoperonospora cubensis; assay: Test of examining control effect on Pseudoperonospora cubensis (potted cucumber plants); type: in vivo; conditions: 96 h, 10% wettable powder adjusted to 125 ppm, 15 ml/pot sprayed on potted cucumber plants one day before spray inoculation, assessed after 1 day wet chamber and 3 days greenhouse, read-out: Determination of control effect (preventive value) on Pseudoperonospora cubensis
Outline: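 Preventive treatment: 125 ppm sample agent solution (from 10% wettable powder) sprayed at 15 ml/pot on 2.5-leaf Sagamihanjiro cucumbers, then P. cubensis inoculated next day at 1.0×10^4 cells/ml. Incubation was 1 day wet at 21° C plus 3 days greenhouse. Lesion area rate compared with untreated gives preventive value (≥60% high).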

[3] = system: Sphaerotheca fuliginea; assay: Test of examining control effect on Sphaerotheca fuliginea (potted cucumber plants); type: in vivo; conditions: Podosphaera fuliginea, 336 h; 10% wettable powder adjusted to 125 ppm, 15 ml/pot sprayed on potted cucumber plants one day before spray inoculation; assessed after 14 days in greenhouse; read-out: Determination of control effect (preventive value) on Sphaerotheca fuliginea
Outline: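 Control effect rated high at preventive value 60–100% and low below 60%, from lesion area relative to untreated plants 14 days after spray inoculation with S. fuliginea (1.0×10^5 cells/ml). Compound applied at 125 ppm as wettable-powder spray one day before inoculation, on 2nd-leaf-stage Sagamihanjiro cucumber.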

| Structure (SMILES) | melting point [°C] | pest or weed control at 125 ppm [1] [%] | pest or weed control at 125 µg/mL [2] [%] | pest or weed control at 125 µg/mL [3] [%] |
| --- | --- | --- | --- | --- |
| C(#Cc1csc(-c2ccccc2)n1)CCNc1ncnc2sccc12 [compound 76, 4-[4-(2-Phenylthiazol-4-yl)-3-butynylamino]thieno[2,3-d]pyrimidine] | 134 to 136 | 0 to 60 | 60 to 100 | 60 to 100 |
| C(#Cc1csc(-c2ccoc2)n1)CCNc1ncnc2sccc12 [compound 78] | 140 to 142 | 0 to 60 | 60 to 100 | 60 to 100 |
| C(#Cc1csc(-c2ccsc2)n1)CCNc1ncnc2sccc12 [compound 80] | 55 to 56 | 0 to 60 | 60 to 100 | 60 to 100 |
| C(#Cc1csc(-c2cccnc2)n1)CCNc1ncnc2sccc12 [compound 81] | 175 to 177 | 0 to 60 | 60 to 100 | 0 to 60 |
| C=C(C#CCCNc1ncnc2ccccc12)CO [compound 92] | 139 | 60 to 100 | 60 to 100 | 0 to 60 |
| C(#Cc1ccccc1)CCNc1ncnc2ccccc12 [compound 96] | 120 to 122 | 60 to 100 | 60 to 100 | 60 to 100 |
| C=C(C)CCc1ccccc1C#CCCNc1ncnc2ccccc12 [compound 105] | 92 to 94 | 60 to 100 | 60 to 100 | 60 to 100 |
| CSc1cccc(C#CCCNc2ncnc3ccccc23)c1 [compound 116] | 141 to 142 | 60 to 100 | 60 to 100 | 60 to 100 |
| CCOc1ccccc1C#CCCNc1ncnc2ccccc12 [compound 118] | 119 to 120 | 60 to 100 | 60 to 100 | 60 to 100 |
| CS(=O)(=O)c1ccc(C#CCCNc2ncnc3ccccc23)cc1 [compound 120] | 164 to 165 | 60 to 100 | 60 to 100 | 60 to 100 |
| CCOC(=O)c1ccc(C#CCCNc2ncnc3ccccc23)cc1 [compound 129] | 137 to 138 | 0 to 60 | 60 to 100 | 0 to 60 |
| OCc1cccc(C#CCCNc2ncnc3ccccc23)c1 [compound 131] | 113 to 115 | 60 to 100 | 60 to 100 | 60 to 100 |
| OCc1ccc(C#CCCNc2ncnc3ccccc23)cc1 [compound 132] | 69 to 71 | 0 to 60 | 60 to 100 | 0 to 60 |
| OC(c1ccccc1C#CCCNc1ncnc2ccccc12)C(F)(F)F (stereo not drawn) [compound 138] | 183 to 187 | 0 to 60 | 0 to 60 | 0 to 60 |
| COCc1cc(F)c(F)cc1C#CCCNc1ncnc2ccccc12 [compound 146] | 121 to 125 | 60 to 100 | 60 to 100 | 60 to 100 |
| C(#Cc1ccc(OC2CCCCO2)cc1)CCNc1ncnc2ccccc12 (stereo not drawn) [compound 156] | 163 to 165 | 60 to 100 | 60 to 100 | 60 to 100 |
| Fc1cc(Cl)ccc1C#CCCNc1ncnc2ccccc12 [compound 164] | 198 to 199 | 60 to 100 | 60 to 100 | 60 to 100 |

| Structure (SMILES) | melting point [°C] | pest or weed control at 125 ppm [1] [%] | pest or weed control at 125 µg/mL [2] [%] | pest or weed control at 125 µg/mL [3] [%] |
| --- | --- | --- | --- | --- |
| N#Cc1c(F)cccc1C#CCCNc1ncnc2ccccc12 [compound 165] | 163 to 164 | 0 to 60 | 60 to 100 | 60 to 100 |
| Fc1ccc(C#CCCNc2ncnc3ccccc23)cc1F [compound 166] | 161 to 162 | 60 to 100 | 60 to 100 | 60 to 100 |
| Clc1cccc(C#CCCNc2ncnc3ccccc23)c1Cl [compound 171] | 175 to 176 | 60 to 100 | 60 to 100 | 60 to 100 |
| Clc1ccc(C#CCCNc2ncnc3ccccc23)c(Cl)c1 [compound 172] | 182 to 183 | 60 to 100 | 60 to 100 | 60 to 100 |
| Clc1ccc(Cl)c(C#CCCNc2ncnc3ccccc23)c1 [compound 173] | 176 to 177 | 0 to 60 | 60 to 100 | 60 to 100 |
| Clc1cccc(Cl)c1C#CCCNc1ncnc2ccccc12 [compound 174] | 153 to 155 | 60 to 100 | 60 to 100 | 60 to 100 |
| Clc1ccc(C#CCCNc2ncnc3ccccc23)cc1Cl [compound 175] | 147 to 148 | 0 to 60 | 60 to 100 | 60 to 100 |
| FC(F)(F)c1ccc(Cl)c(C#CCCNc2ncnc3ccccc23)c1 [compound 176] | 144 to 145 | 0 to 60 | 60 to 100 | 60 to 100 |
| COc1ccc(Cl)cc1C#CCCNc1ncnc2ccccc12 [compound 179] | 147 to 149 | 60 to 100 | 60 to 100 | 60 to 100 |
| C(#Cc1ccc2ccccc2c1)CCNc1ncnc2ccccc12 [compound 183] | 159 to 160 | 60 to 100 | 60 to 100 | 60 to 100 |
| Fc1cncc(C#CCCNc2ncnc3ccccc23)c1 [compound 193] | 145 to 150 | 60 to 100 | 60 to 100 | 60 to 100 |
| Clc1ncccc1C#CCCNc1ncnc2ccccc12 [compound 195] | 168 to 170 | 60 to 100 | 60 to 100 | 60 to 100 |
| FC(F)(F)c1ccc(C#CCCNc2ncnc3ccccc23)cn1 [compound 198] | 134 to 139 | 0 to 60 | 60 to 100 | 60 to 100 |
| OCc1cnccc1C#CCCNc1ncnc2ccccc12 [compound 201] | 182 to 186 | 0 to 60 | 60 to 100 | 60 to 100 |
| OCc1ccc(C#CCCNc2ncnc3ccccc23)cn1 [compound 202] | 183 to 185 | 0 to 60 | 60 to 100 | 0 to 60 |
| OCc1cc(C#CCCNc2ncnc3ccccc23)co1 [compound 209] | 135 to 147 | 0 to 60 | 60 to 100 | 0 to 60 |
